Experimental data as given in ChEMBL document CHEMBL3259698, “Reductions in log P improved protein binding and clearance predictions enabling the prospective design of cannabinoid receptor (CB1) antagonists with desired pharmacokinetic properties” (J Med Chem, 2013).
pIC50, pKi: −log10 of the molar value. Converted amounts (≈) assume the structure as drawn. Each block holds one compound with its values, some of them ahead of it.

Legend:
[1] = Aqueous solubility of the compound; assay type: physicochemical; settings: buffer
Cytochrome P450 3A4 = Cytochrome P450 3A4 (Homo sapiens, UniProt P08684); assay: Inhibition of human recombinant CYP3A4
Chain of Cytochrome P450 3A4 (P08684 whole entry): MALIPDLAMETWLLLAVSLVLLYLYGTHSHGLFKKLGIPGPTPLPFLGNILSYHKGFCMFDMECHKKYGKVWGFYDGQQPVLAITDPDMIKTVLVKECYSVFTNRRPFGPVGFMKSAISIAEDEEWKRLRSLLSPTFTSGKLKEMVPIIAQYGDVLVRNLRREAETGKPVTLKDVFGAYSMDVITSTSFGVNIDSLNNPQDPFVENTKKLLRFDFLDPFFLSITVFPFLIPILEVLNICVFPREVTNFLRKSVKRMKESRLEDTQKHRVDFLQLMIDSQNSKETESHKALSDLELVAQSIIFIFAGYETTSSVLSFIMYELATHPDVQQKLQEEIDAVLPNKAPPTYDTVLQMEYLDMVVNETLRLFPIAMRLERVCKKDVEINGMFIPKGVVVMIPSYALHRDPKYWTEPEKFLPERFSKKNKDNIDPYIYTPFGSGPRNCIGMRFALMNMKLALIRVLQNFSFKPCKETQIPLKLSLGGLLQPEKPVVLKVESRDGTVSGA

Cytochrome P450 2C9 = Cytochrome P450 2C9 (Homo sapiens, UniProt P11712); assay: Inhibition of human recombinant CYP2C9; assay type: ADME
Chain of Cytochrome P450 2C9 (P11712 whole entry): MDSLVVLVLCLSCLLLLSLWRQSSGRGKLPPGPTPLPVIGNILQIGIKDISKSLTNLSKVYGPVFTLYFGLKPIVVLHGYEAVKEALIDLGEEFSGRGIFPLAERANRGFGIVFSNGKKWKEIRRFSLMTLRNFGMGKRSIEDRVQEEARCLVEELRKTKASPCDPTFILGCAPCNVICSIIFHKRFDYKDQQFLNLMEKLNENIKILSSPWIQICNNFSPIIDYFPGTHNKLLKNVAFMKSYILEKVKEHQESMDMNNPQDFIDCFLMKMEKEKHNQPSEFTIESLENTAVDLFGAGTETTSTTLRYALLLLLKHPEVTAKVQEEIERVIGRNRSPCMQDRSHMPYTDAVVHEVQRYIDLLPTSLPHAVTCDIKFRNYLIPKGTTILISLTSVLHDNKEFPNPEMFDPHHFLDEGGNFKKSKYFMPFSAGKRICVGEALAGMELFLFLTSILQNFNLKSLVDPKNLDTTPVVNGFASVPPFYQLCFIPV

[2] = Lipophilicity, log P of the compound by HPLC analysis; assay type: physicochemical
Cannabinoid receptor 1 = Cannabinoid receptor 1 (Homo sapiens, UniProt P21554); assay: Binding affinity to human CB1 receptor expressed in CHO cells by radioligand displacement based scintillation counting analysis; assay type: cell-based
Chain of Cannabinoid receptor 1 (P21554 whole entry): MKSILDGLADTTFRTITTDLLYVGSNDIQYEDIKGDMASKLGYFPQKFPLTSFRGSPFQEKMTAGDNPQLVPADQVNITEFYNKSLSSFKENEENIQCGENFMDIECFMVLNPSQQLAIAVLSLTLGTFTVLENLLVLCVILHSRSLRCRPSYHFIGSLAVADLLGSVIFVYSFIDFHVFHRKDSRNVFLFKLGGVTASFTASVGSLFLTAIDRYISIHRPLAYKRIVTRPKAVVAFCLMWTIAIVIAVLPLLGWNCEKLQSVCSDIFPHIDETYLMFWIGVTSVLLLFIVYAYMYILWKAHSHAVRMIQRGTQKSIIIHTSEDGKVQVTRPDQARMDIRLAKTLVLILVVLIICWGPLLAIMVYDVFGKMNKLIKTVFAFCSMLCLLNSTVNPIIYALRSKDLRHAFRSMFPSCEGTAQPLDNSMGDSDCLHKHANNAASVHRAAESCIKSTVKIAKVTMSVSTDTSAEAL

[3] = Elimination half life in iv dosed dog; assay type: ADME, organism-based, Canis lupus familiaris; settings: in vivo, read-out: beta t1/2 (converted)
[4] = Terminal half life in Sprague-Dawley rat at 3 mg/kg, iv; assay type: ADME, organism-based; parameters: dose 3 mg/kg, route intravenous; settings: in vivo, read-out: beta t1/2 (converted)
[5] = Elimination half life in iv dosed cynomolgus monkey; assay type: ADME, organism-based, Macaca fascicularis; settings: in vivo, read-out: beta t1/2 (converted)
Cytochrome P450 2C19 = Cytochrome P450 2C19 (Homo sapiens, UniProt P33261); assay: Inhibition of human recombinant CYP2C19; assay type: ADME
Chain of Cytochrome P450 2C19 (P33261 whole entry): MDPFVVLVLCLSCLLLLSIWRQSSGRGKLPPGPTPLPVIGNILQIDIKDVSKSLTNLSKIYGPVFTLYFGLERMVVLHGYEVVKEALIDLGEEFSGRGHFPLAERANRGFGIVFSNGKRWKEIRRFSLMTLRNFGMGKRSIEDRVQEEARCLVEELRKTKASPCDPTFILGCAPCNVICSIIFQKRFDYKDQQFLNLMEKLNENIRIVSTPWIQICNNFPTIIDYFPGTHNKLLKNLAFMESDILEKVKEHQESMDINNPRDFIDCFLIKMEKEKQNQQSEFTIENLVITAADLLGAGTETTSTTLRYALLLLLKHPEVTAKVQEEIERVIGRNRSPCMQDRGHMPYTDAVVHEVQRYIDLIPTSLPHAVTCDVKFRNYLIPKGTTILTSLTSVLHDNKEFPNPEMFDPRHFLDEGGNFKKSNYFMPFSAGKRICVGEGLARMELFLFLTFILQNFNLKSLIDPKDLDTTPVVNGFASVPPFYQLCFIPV

Liver microsome = assay: Clearance in rat liver microsomes at 1 to 3 uM after 20 mins by LC/MS/MS analysis
[6] = Fraction unbound in rat plasma at 10 uM by equilibrium dialysis method; assay type: ADME, cell-free
[7] = Oral bioavailability in dog; assay type: ADME, organism-based, Canis lupus familiaris; settings: in vivo
Rattus norvegicus [8] = assay: Antiobesity activity in diet-induced obese rat as reduction in body weight at 10 mg/kg, po after 28 days; assay type: functional; parameters: scale not given: the % may be the effect or the level left
Rattus norvegicus [9] = assay: Antiobesity activity in diet-induced obese rat as reduction in body weight at 3 mg/kg, po after 28 days; assay type: functional; parameters: scale not given: the % may be the effect or the level left
[10] = Drug excretion in bile duct-cannulated rat bile assessed as M + 2O-2H and M + O + glucuronide level at 5 mg/kg, po after 48 hrs; assay type: ADME, organism-based; parameters: dose 5 mg/kg, route oral; settings: in vivo
[11] = Drug excretion in bile duct-cannulated rat bile at 5 mg/kg, po after 48 hrs; assay type: ADME, organism-based; parameters: dose 5 mg/kg, route oral; settings: read-out: Drug excretion
[12] = Oral bioavailability in cynomolgus monkey; assay type: ADME, organism-based, Macaca fascicularis; settings: in vivo
[13] = Oral bioavailability in Sprague-Dawley rat; assay type: ADME, organism-based; settings: in vivo
[14] = Fraction unbound in human plasma at 10 uM by equilibrium dialysis method; assay type: ADME, cell-free
[15] = Drug excretion in bile duct-cannulated rat urine assessed as M + 2O-2H and M + O + glucuronide level at 5 mg/kg, po after 48 hrs; assay type: ADME, organism-based; parameters: dose 5 mg/kg, route oral; settings: in vivo
Rattus norvegicus [16] = assay: Antiobesity activity in diet-induced obese rat as reduction in body weight at 1 mg/kg, po after 28 days; assay type: functional; parameters: scale not given: the % may be the effect or the level left
Rattus norvegicus [17] = assay: Antiobesity activity in rat assessed as reduction in body weight at 3 mg/kg after 4 days; assay type: functional; parameters: scale not given: the % may be the effect or the level left
[18] = Drug excretion in bile duct-cannulated rat at 5 mg/kg, po; assay type: ADME, organism-based; parameters: dose 5 mg/kg, route oral; settings: read-out: Drug excretion
Rattus norvegicus [19] = assay: Antiobesity activity in rat assessed as reduction in body weight at 10 mg/kg after 4 days; assay type: functional; parameters: scale not given: the % may be the effect or the level left
Rattus norvegicus [20] = assay: Drug excretion in bile duct-cannulated rat assessed as M + 2O-2H level at 5 mg/kg, po; assay type: ADME, organism-based; parameters: dose 5 mg/kg, route oral; settings: in vivo
[21] = Metabolic stability in rat hepatocytes assessed as compound remaining at 0.5 to 3 uM after 2 hrs by LC-MS/MS analysis; assay type: ADME, cell-based, Hepatocyte; settings: read-out: Stability
Rattus norvegicus [22] = assay: Drug excretion in bile duct-cannulated rat assessed as M + O + glucuronide level at 5 mg/kg, po; assay type: ADME, organism-based; parameters: dose 5 mg/kg, route oral; settings: in vivo
[23] = Elimination half life in human; assay type: ADME, organism-based; settings: in vivo, read-out: beta t1/2 (converted)
Rattus norvegicus [24] = assay: Antiobesity activity in rat assessed as reduction in body weight at 10 mg/kg, qd after 4 days; assay type: functional; parameters: scale not given: the % may be the effect or the level left

solubility [1]: 3 µg/mL (≈ 5.31 µM)
pIC50 (Cytochrome P450 3A4): < 4.40
pIC50 (Cytochrome P450 2C9): < 4.40
logP [2]: 4.6
pKi (Cannabinoid receptor 1): 8.85
half-life [3]: 70 h
half-life [4]: 7 h
half-life [5]: 40 h
pIC50 (Cytochrome P450 2C19): < 4.40
SMILES: CCn1nc2c(-c3ccc(Cl)cc3)c(-c3ccc(C#N)cc3)c(=O)n(Cc3ccc(C(F)(F)F)nc3C)n2c1=O

logP [2]: 5
pKi (Cannabinoid receptor 1): 8.52
CLH (Liver microsome): 0 nmol/min/mg
SMILES: CCn1nc2c(-c3ccc(Cl)cc3)c(-c3ccc(C#N)c(C)c3)c(=O)n(Cc3ccc(C(F)(F)F)nc3C)n2c1=O

logP [2]: 5
pKi (Cannabinoid receptor 1): 8.80
CLH (Liver microsome): 0.152 nmol/min/mg
SMILES: CCc1nc(C(F)(F)F)ccc1Cn1c(=O)c(-c2ccc(C#N)cc2)c(-c2ccc(Cl)cc2)c2nn(CC)c(=O)n21

logP [2]: 5.2
pKi (Cannabinoid receptor 1): 8.72
CLH (Liver microsome): 0.014 nmol/min/mg
SMILES: Cc1nc(C(F)(F)F)ccc1Cn1c(=O)c(-c2ccc(C#N)cc2)c(-c2ccc(Cl)cc2)c2nn(C(C)C)c(=O)n21

logP [2]: 5.2
pKi (Cannabinoid receptor 1): 7.92
SMILES: CCn1nc2c(-c3ccc(Cl)cc3)c(-c3ccc(C#N)cc3)c(=O)n(Cc3ccc(C)cc3)n2c1=O

logP [2]: 4.6
pKi (Cannabinoid receptor 1): 8.54
CLH (Liver microsome): 0.052 nmol/min/mg
SMILES: CCn1nc2c(-c3ccc(C)cc3)c(-c3ccc(C#N)cc3)c(=O)n(Cc3ccc(C(F)(F)F)nc3C)n2c1=O

fraction unbound at 10 µM [6]: 0.01
logP [2]: 4.2
pKi (Cannabinoid receptor 1): 8.30
half-life [3]: 45 h
half-life [5]: 8 h
SMILES: CCn1nc2c(-c3ccc(Cl)cc3)c(-c3ccc(C#N)cc3)c(=O)n(Cc3ccc(C#N)cc3)n2c1=O

fraction unbound at 10 µM [6]: 0.09
logP [2]: 3.6
pKi (Cannabinoid receptor 1): 8.30
half-life [3]: 7 h
half-life [4]: 1.1 h
half-life [5]: 9 h
SMILES: CCn1nc2c(-c3ccc(Cl)cc3)c(-c3ccc(CO)nc3)c(=O)n(Cc3ccc(C(F)(F)F)nc3C)n2c1=O

SMILES: CCn1nc2c(-c3ccc(Cl)cc3)c(-c3cnc(C)nc3)c(=O)n(Cc3ccc(C(F)(F)F)nc3C)n2c1=O
solubility [1]: 17 µg/mL (≈ 30.6 µM)
fraction unbound at 10 µM [6]: 0.13
bioavailability [7]: 75%
Activity (Rattus norvegicus [8]): 10.2%
Activity (Rattus norvegicus [9]): 4.1%
Drug excretion [10]: 76 %ID
dose excreted at 48 h [11]: 0.8%
pIC50 (Cytochrome P450 3A4): < 4.40
pIC50 (Cytochrome P450 2C9): < 4.40
bioavailability [12]: 51%
bioavailability [13]: 73%
fraction unbound at 10 µM [14]: 0.07
logP [2]: 3.8
pKi (Cannabinoid receptor 1): 8.33
Drug excretion [15]: 7 %ID
Activity (Rattus norvegicus [16]): 2.4%
half-life [3]: 42 h
half-life [4]: 5 h
Activity (Rattus norvegicus [17]): 2.8%
dose excreted [18]: < 1%
Activity (Rattus norvegicus [19]): 7.2%
Drug excretion (Rattus norvegicus [20]): 36 %ID
remaining at 2 h, 3 µM [21]: 5%
half-life [5]: 12 h
Drug excretion (Rattus norvegicus [22]): 26 %ID
pIC50 (Cytochrome P450 2C19): < 4.40

pIC50 (Cytochrome P450 3A4): 5.15
pIC50 (Cytochrome P450 2C9): 4.85
logP [2]: 4.3
pKi (Cannabinoid receptor 1): 8.49
pIC50 (Cytochrome P450 2C19): 5.30
SMILES: CCn1nc2c(-c3ccc(Cl)cc3)c(-c3ccncc3F)c(=O)n(Cc3ccc(C(F)(F)F)nc3C)n2c1=O

pIC50 (Cytochrome P450 3A4): 5.47
pIC50 (Cytochrome P450 2C9): < 4.40
logP [2]: 3.8
pKi (Cannabinoid receptor 1): 7.04
pIC50 (Cytochrome P450 2C19): < 4.40
SMILES: CCn1nc2c(-c3ccc(Cl)cc3)c(-c3cnn(C)c3)c(=O)n(Cc3ccc(C#N)cc3)n2c1=O

pIC50 (Cytochrome P450 3A4): < 4.40
pIC50 (Cytochrome P450 2C9): < 4.40
logP [2]: 4.3
pKi (Cannabinoid receptor 1): 7.11
pIC50 (Cytochrome P450 2C19): < 4.40
SMILES: CCn1nc2c(-c3ccc(Cl)cc3)c(-c3cnc(N(C)C)nc3)c(=O)n(Cc3ccc(C#N)cc3)n2c1=O

half-life [23]: 120 h
SMILES: CCNC1(C(N)=O)CCN(c2ncnc3c2nc(-c2ccccc2Cl)n3-c2ccc(Cl)cc2)CC1 [OTENABANT]

SMILES: Cc1c(C(=O)NN2CCCCC2)nn(-c2ccc(Cl)cc2Cl)c1-c1ccc(Cl)cc1 [RIMONABANT]
Activity (Rattus norvegicus [8]): 6.2%
Activity (Rattus norvegicus [24]): 5%
half-life [23]: 216 h

half-life [23]: 72 h
SMILES: C[C@H](NC(=O)C(C)(C)Oc1ccc(C(F)(F)F)cn1)[C@@H](Cc1ccc(Cl)cc1)c1cccc(C#N)c1 [TARANABANT]
